Experimental data taken from PMC6273932, “Xanthium strumarium as an Inhibitor of α-Glucosidase, Protein Tyrosine Phosphatase 1β, Protein Glycation and ABTS^+ for Diabetic and Its Complication” (Molecules, 2016).
Values after ≈ are worked out from the molar mass of the structure shown. Values belong to the molecule of their own block, whether it stands above or below them.

Tests used:
α-glucosidase = molecular target: α-glucosidase; design: method as in ref 15 (Chen et al.); conditions: compounds isolated from aerial parts of Gynura divaricate; ref 15 (Chen et al.); read-out: inhibitory effects against α-glucosidase; cited from earlier work
PTP1β = tested on: PTP1β; design: method as in ref 16 (Hwang et al.); conditions: compounds isolated from Zea mays L.; ref 16 (Hwang et al.); read-out: PTP1β inhibitory activity IC50; cited from earlier work
[1] = tested on: α-glucosidase from Saccharomyces sp.; experiment: α-glucosidase inhibitory activity assay (pNPG substrate, absorbance 405 nm); assay type: biochemical
Text: ^1H- and ^13C-NMR spectra and correlation NMR spectra such as COSY, HMBC, HMQC, and DEPT were obtained from a Bruker Avance DPX 400 (or 600) spectrometer (Berlin, Germany). These were obtained at operating frequencies of 400 MHz (^1H) and 100 (or 150) MHz (^13C) with CD3OD, (CD3)2SO, (CD3)2CO, or D2O and TMS was used as an internal standard; chemical shifts were reported in δ values. The α-glucosidase from Saccharomyces sp. (SSG) was purchased from Wako Pure Chemical Industries Ltd (Tokyo, Japan). […] All other chemicals and reagents used were of analytical grade.
The α-glucosidase inhibitory activity of the extracts and fractions was determined using a modified procedure reported method with a slight modification. The α-glucosidase activity was measured using the substrate p-nitrophenyl-α-D-glucopyranoside (pNPG), which is hydrolyzed by α-glucosidase to release the product p-nitrophenol, a colorant that can be monitored at 405 nm. The initial concentration of the enzyme solution was 0.62 unit/mL in 0.1 M phosphate buffer (pH 6.9) and the initial concentration of the substrate solution was 2 mM in the same phosphate buffer. The enzyme solution was mixed with water and the samples or controls in a clear 96-well microplate (flat bottom) and the reaction was initiated by addition of the substrate to the solution. The plates were incubated at 37 °C for 5 min and the reaction was terminated by the addition of 0.1 M Na2CO3. […] Background absorbance was determined using a non-enzyme control microplate containing the buffer and was subtracted from the absorbance of the samples and controls.

[2] = tested on: advanced glycation end products (AGEs); experiment: AGEs inhibitory activity, bovine serum albumin-methylglyoxal assay (fluorescence); assay type: biochemical; conditions: for IC50 AGEs: - is no activity
Method: The modified procedure of Lee et al. was followed. Bovine serum albumin (10 mg/mL) was incubated with 5 mM methylglyoxal in sodium phosphate buffer (100 mM; pH 7.4). […] All of the reagents and samples were […] by filtration through 0.2 μm membrane filters and the mixture was incubated at 37 °C for 7 days. The fluorescence intensity was measured at an excitation wavelength of 330 nm and an emission wavelength of 410 nm with a LS50B fluorescence spectrometer Perkin-Elmer Ltd., (Buckinghamshire, FLS, UK). Aminoguanidine was also tested as a known inhibitor.

[3] = molecular target: T1, protein tyrosine phosphatase 1β (PTP1β) (Homo sapiens, UniProt P18031); experiment: PTP1β inhibitory activity assay (colorimetric kit, IR5 phosphopeptide substrate); assay type: biochemical; conditions: for inhibition at 10 µg/mL: 10 μg/mL; for inhibition at 10 µg/mL / IC50: - is no activity; for IC50: isolated compounds
T1 sequence (P18031 1-322 limits assumed): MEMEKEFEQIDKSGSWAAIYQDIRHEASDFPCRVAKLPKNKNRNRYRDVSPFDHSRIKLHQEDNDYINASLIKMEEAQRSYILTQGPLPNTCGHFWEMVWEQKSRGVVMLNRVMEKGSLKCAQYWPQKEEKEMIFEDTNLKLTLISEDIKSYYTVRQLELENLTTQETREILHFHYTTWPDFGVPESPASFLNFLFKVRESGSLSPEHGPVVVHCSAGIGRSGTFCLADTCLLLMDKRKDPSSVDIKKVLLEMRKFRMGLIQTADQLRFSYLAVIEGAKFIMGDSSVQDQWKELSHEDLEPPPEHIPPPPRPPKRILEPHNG
Method: PTP1β tyrosine phosphatase drug discovery kit is a colorimetric, non-radioactive assay designed to measure the phosphatase activity of purified PTP1β. […] Following incubation at 37 °C for 30 min, the reaction was terminated with the BIOMOL RED^TM reagent. The amount of […] produced was estimated by measuring the absorbance at 620 nm. The non-enzymatic hydrolysis of the IR5 substrate was corrected by measuring the increase in absorbance at 620 nm obtained in the absence of PTP1β enzyme.

[4] = ABTS^+ radical scavenging activity assay; conditions: for IC50 / IC50 ABTS^+ radical scavenging: isolated compounds
Method: The method described by Li et al. was used with slight modifications. ABTS^+ diammonium salt (2 mM) and potassium persulfate (3.5 mM) were mixed, diluted in distilled water and kept in the dark at room temperature for 24 h before use. After addition of ABTS^+ solution to 10 µL of antioxidant, measurements were recorded at 10 min post reaction. The percentage inhibition of absorbance at 750 nm was calculated and plotted as a function of concentration of antioxidants. Trolox was used as positive control.

[5] = Table 2, crude extract and fractions, - is no activity

SMILES: O=C(/C=C/c1ccc(O)c(O)c1)O[C@H]1[C@H](O)C[C@](O)(C(=O)O)C[C@H]1OC(=O)/C=C/c1ccc(O)c(O)c1 [3,4-di-O-CQA]
- IC50 (α-glucosidase): 187 µM

SMILES: COc1cc(-c2oc3cc(O)cc(O)c3c(=O)c2O[C@@H]2O[C@H](CO)[C@@H](O)[C@H](O)[C@H]2O)ccc1O [3′-methoxyhirsutrin]
- IC50 (PTP1β): 64 µM

SMILES: O=C(/C=C/c1ccc(O)c(O)c1)O[C@@H]1[C@H](O)C[C@@](O)(C(=O)O)C[C@H]1OC(=O)/C=C/c1ccc(O)c(O)c1 [4,5-di-O-CQA]
- IC50 (α-glucosidase): 131 µM

- Inhibition (%) α-glucosidase ([1]; 50 μg/mL, - is no activity): 16.98%
- Inhibition (%) α-glucosidase ([1]; 250 μg/mL): 41.06%
- Inhibition (%) α-glucosidase ([1]; 500 μg/mL): 60.29%
- Inhibition (%) α-glucosidase ([1]; 1000 μg/mL): 106.14%
- IC50 α-glucosidase [1, 5]: 377.19 ± 38.17 µg/mL (≈ 584 µM)
- IC50 ([1]; isolated compounds): 585 µM
- IC50 α-glucosidase ([1]; isolated compounds, - is no activity): 377.19 ± 37.8 µg/mL (≈ 584 µM)
SMILES: C[C@H]1O[C@H](O[C@H]2[C@H](O)[C@@H](O)[C@@H](O[C@H]3[C@H](O)[C@@H](O)C(O)O[C@@H]3CO)O[C@@H]2CO)[C@H](O)[C@@H](O)[C@@H]1N[C@H]1C=C(CO)[C@@H](O)[C@H](O)[C@H]1O (some centres unmarked) [Acarbose, reference compound]

SMILES: N=C(N)NN [Aminoguanidine, reference compound]
- Inhibition (%) AGEs ([2]; 50 μg/mL): 27.97%
- Inhibition (%) AGEs ([2]; 100 μg/mL): 37.84%
- Inhibition (%) AGEs ([2]; 200 μg/mL): 61.01%
- Inhibition (%) AGEs ([2]; 400 μg/mL): 98.17%
- IC50 AGEs ([2]; Table 2, crude extract and fractions): 166.22 ± 16.29 µg/mL (≈ 2240 µM)
- IC50 ([2]; isolated compounds): 1410 µM
- IC50 AGEs ([2]; isolated compounds): 155.88 ± 15.45 µg/mL (≈ 2100 µM)

SMILES: Cc1ccc(C(=O)Nc2ccc(S(=O)(=O)O)c3cc(S(=O)(=O)O)cc(S(=O)(=O)O)c23)cc1NC(=O)c1cccc(NC(=O)Nc2cccc(C(=O)Nc3cc(C(=O)Nc4ccc(S(=O)(=O)O)c5cc(S(=O)(=O)O)cc(S(=O)(=O)O)c45)ccc3C)c2)c1 [Suramin, reference compound]
- inhibition at 1.43 µg/mL ([3]; 1.43 μg/mL): 10.4%
- inhibition at 3.57 µg/mL ([3]; 3.57 μg/mL): 26.4%
- inhibition at 7.15 µg/mL ([3]; 7.15 μg/mL): 52.2%
- inhibition at 14.29 µg/mL ([3]; read-out: Inhibition (%) PTP1β): 83.6%

- IC50 ABTS^+ [4, 5]: 7.51 ± 0.58 µg/mL (≈ 30 µM)
- IC50 [4]: 29.7 µM
- IC50 ABTS^+ radical scavenging ([4]; - is no activity): 7.43 ± 0.71 µg/mL (≈ 29.7 µM)
SMILES: Cc1c(C)c2c(c(C)c1O)CCC(C)(C(=O)O)O2 (centres unmarked) [Trolox, reference compound]
- Inhibition (%) ABTS^+ ([4]; 1.66 μg/mL): 17.27%
- Inhibition (%) ABTS^+ ([4]; 8.33 μg/mL): 54.14%
- Inhibition (%) ABTS^+ ([4]; 16.66 μg/mL): 95.06%

SMILES: O=C(O)c1ccc(O)c(O)c1 [compound 1, protocatechuic acid]
- Inhibition (%) α-glucosidase ([1]; 50 μg/mL, - is no activity): 17.45%
- inhibition at 10 µg/mL [3]: 28.6%
- IC50 [3]: > 64.9 µM
- Inhibition (%) AGEs ([2]; 100 μg/mL): 9.49%
- Inhibition (%) ABTS^+ ([4]; 1.66 μg/mL): 25.17%
- Inhibition (%) ABTS^+ ([4]; 8.33 μg/mL): 68.72%
- Inhibition (%) ABTS^+ ([4]; 16.66 μg/mL): 97.22%
- IC50 [4]: 32.9 µM
- IC50 ABTS^+ radical scavenging ([4]; - is no activity): 4.94 ± 0.38 µg/mL (≈ 32.1 µM)

- Inhibition (%) α-glucosidase ([1]; 50 μg/mL, - is no activity): 8.60%
- inhibition at 10 µg/mL [3]: 5.88%
- IC50 [3]: > 60.2 µM
SMILES: O=C(CCO)c1ccc(O)cc1 [compound 2, 3-hydroxy-1-(4-hydroxyphenyl) propan-1-one]
- Inhibition (%) AGEs ([2]; 100 μg/mL): 8.50%

- Inhibition (%) α-glucosidase ([1]; 50 μg/mL, - is no activity): 4.70%
- inhibition at 10 µg/mL [3]: < 0%
- IC50 [3]: > 41.1 µM
SMILES: Nc1ccn([C@@H]2O[C@H](CO)[C@@H](O)[C@H]2O)c(=O)n1 [compound 3, cytidine]
- Inhibition (%) AGEs ([2]; 100 μg/mL): 33.16%
